Measurements as given in PubChem BioAssay (NCI).
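How tested: cells in 96-well plates exposed to compound for 48 hours at five concentrations. TGI marks complete inhibition of growth.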

Experiments:
Test in all cases: inhibition of tumour cell growth, NCI panel, 48 h
BT-549 breast = test system: BT-549 breast
COLO 205 colon = test system: COLO 205 colon
DU-145 prostate = test system: DU-145 prostate
HCT-15 colon = test system: HCT-15 colon
HOP-92 NSCLC = test system: HOP-92 NSCLC
IGROV1 ovarian = test system: IGROV1 ovarian
MALME-3M melanoma = test system: MALME-3M melanoma
MCF7 breast = test system: MCF7 breast
MDA-MB-231 breast = test system: MDA-MB-231 breast
MDA-MB-435 = test system: MDA-MB-435
NCI-H460 lung = test system: NCI-H460 lung
OVCAR-5 ovarian = test system: OVCAR-5 ovarian
RPMI-8226 leukemia = test system: RPMI-8226 leukemia
SK-MEL-28 melanoma = test system: SK-MEL-28 melanoma
SK-OV-3 ovarian = test system: SK-OV-3 ovarian
SR leukemia = test system: SR leukemia
T-47D breast = test system: T-47D breast
TK-10 renal = test system: TK-10 renal
UACC-62 melanoma = test system: UACC-62 melanoma

| Compound | TGI (BT-549 breast) [µM] | TGI (COLO 205 colon) [µM] | TGI (DU-145 prostate) [µM] | TGI (HCT-15 colon) [µM] | TGI (HOP-92 NSCLC) [µM] | TGI (IGROV1 ovarian) [µM] | TGI (MALME-3M melanoma) [µM] | TGI (MCF7 breast) [µM] | TGI (MDA-MB-231 breast) [µM] | TGI (MDA-MB-435) [µM] | TGI (NCI-H460 lung) [µM] | TGI (OVCAR-5 ovarian) [µM] | TGI (RPMI-8226 leukemia) [µM] | TGI (SK-MEL-28 melanoma) [µM] | TGI (SK-OV-3 ovarian) [µM] | TGI (SR leukemia) [µM] | TGI (T-47D breast) [µM] | TGI (TK-10 renal) [µM] | TGI (UACC-62 melanoma) [µM] |
| --- | --- | --- | --- | --- | --- | --- | --- | --- | --- | --- | --- | --- | --- | --- | --- | --- | --- | --- | --- |
| O=Nc1c(-c2c(O)[nH]c3ccccc23)[nH]c2ccccc12 | 30 | 34.8 | 31 | > 87.5 | > 29.6 | 22 | 27.8 | > 23.9 | 21.2 | > 39.7 | 28.7 | > 86.4 | 9.95 | 27.7 | 21.2 | > 100 | > 48.7 | 55.2 | 11.1 |
| CC(C)(C)N1C(=O)c2ccccc2C1(O)C(F)(F)F (configuration not stated) | > 100 | > 100 | > 100 | > 100 | > 100 | > 100 | > 100 | > 100 | > 100 | > 100 | > 100 | > 100 | > 100 | > 100 | > 100 | > 100 | > 100 | > 100 | > 100 |
| CCN(CC)C(=S)SNc1ccc(S(N)(=O)=O)cc1 | > 100 | > 100 | > 100 | > 100 | > 100 | > 100 | 97.3 | > 100 | > 100 | > 100 | > 100 | > 72.3 | > 78.9 | > 100 | > 100 | > 85.6 | > 100 | > 100 | > 100 |
| C/C(=C/c1ccccc1)CN(C(=O)/C=C\Sc1ccccc1)C(C)(C)C | > 100 | > 100 | > 100 | > 100 | > 71.6 | > 100 | > 100 | > 100 | > 100 | > 100 | > 100 | > 100 | > 100 | > 100 | > 100 | > 100 | > 100 | > 100 | > 100 |
| O=C(Nc1ccc(Cl)cc1)NS(=O)(=O)c1coc2ccccc2c1=O | > 10 | > 10 | > 10 | > 10 | > 10 | > 10 | > 10 | > 10 | > 10 | > 10 | > 10 | > 10 | > 10 | > 10 | > 10 | > 10 | > 10 | > 10 | > 10 |
| CC(C)(Br)C(Br)CCC(=CCBr)CBr (mixture of isomers) | 5.62 | 10.7 | 22.3 | 5.98 | 13.3 | 8.9 | 13.5 | 13.2 | 26.3 | 14.1 | 9.9 | 37.2 | 4.83 | 6.86 | 36.4 | 4.69 | 8.53 | 22.5 | 4.4 |
| CC1(C)C=Cc2c(cc3oc4ccc5c(c4c(=O)c3c2O)C=CC(C)(C)O5)O1 | > 100 | > 100 | > 100 | > 100 | > 100 | > 100 | > 100 | > 100 | > 100 | > 100 | – | > 100 | > 100 | > 100 | > 100 | > 100 | > 100 | > 100 | > 100 |
| COC(=O)C(Cc1ccccc1)NC(=O)C(CCC(=O)OCc1ccccc1)NC(=O)OC(C)(C)C (configuration not stated) | > 100 | > 100 | > 100 | > 100 | > 100 | > 100 | > 100 | > 100 | > 100 | > 100 | > 100 | > 100 | > 100 | > 100 | > 100 | > 100 | > 100 | > 100 | > 100 |
| Cc1cc(=O)oc2cc(SC(=O)N(C)C)ccc12 | > 100 | > 100 | > 100 | > 100 | > 100 | > 100 | > 100 | > 100 | > 100 | > 100 | > 100 | > 100 | > 100 | > 100 | > 100 | > 100 | > 100 | > 100 | > 100 |
| CCOC(=O)CC(=O)C(=O)NNC1=NCCN1 | > 100 | > 100 | > 100 | > 100 | > 100 | > 100 | > 100 | > 100 | > 100 | > 100 | > 100 | > 100 | > 100 | > 100 | > 100 | > 100 | > 100 | > 100 | > 100 |
| COc1ccc(C2=Nn3c(nc4sc(C)c(C)c4c3=O)SC2)cc1 | > 100 | > 100 | > 100 | > 100 | > 100 | > 100 | > 100 | > 100 | > 100 | > 100 | > 100 | > 100 | > 100 | > 100 | > 100 | > 100 | > 100 | > 100 | > 100 |
| CN(C)CCCNC(=O)c1cc(NC(=O)c2cc(NS(=O)(=O)c3ccc4c(c3)C(=O)c3ccccc3C4=O)cn2C)cn1C | > 100 | > 100 | > 100 | > 100 | > 100 | > 100 | 79.4 | > 100 | > 100 | > 100 | > 100 | > 100 | > 100 | > 100 | > 100 | > 100 | > 100 | > 100 | > 100 |
